Structures are written as SMILES.

Data set [1] has as its target Neuraminidase (Influenza A virus) (UniProt B4URF0). Briefly: Inhibition of Influenza A virus H1N1 A/duck/China/QJ/01 neuraminidase N1 using 4-MU-NANA as substrate at 100 uM after 5 mins by fluorescence assay.
In data set [2] the target is T1, Neuraminidase (Influenza A virus, UniProt B4URF0). Briefly: Inhibition of Influenza A virus H9N2 neuraminidase.
The target in data set [3] is T1, Neuraminidase. Briefly: Inhibition of Influenza A virus H1N1 A/duck/China/QJ/01 neuraminidase N1 using 4-MU-NANA as substrate after 5 mins by fluorescence assay.
A short description of data set [4]: Cytotoxicity against chicken embryo fibroblast after 2 days by MTS assay. In kind it is cell-based, Gallus gallus. As to conditions: chicken embryo fibroblasts. (Tetrazolium assays rely on reduction of a dye to a coloured formazan, in cell work by metabolically active cells.)
Data set [5] has as its target T1, Neuraminidase. Briefly: Inhibition of Influenza A virus (A/chicken/Sandong/Li/2008(H9N2)) neuraminidase N2 using 4-MU-NANA as substrate after 5 mins by fluorescence assay.
The subject of a further data set is Influenza A virus. Briefly: Antiviral activity against Influenza A virus (A/chicken/Sandong/Li/2008(H9N2)) infected in chicken embryo fibroblast assessed as protection against virus-induced cytopathic effect after 2 days by MTS assay. In kind it is functional, organism-based. As to conditions: 48 h.
Data set [6] deals with T1, Neuraminidase. Briefly: Inhibition of Influenza A virus H1N1 neuraminidase.
Data set [7] addresses T1, Neuraminidase. Kind of data set: Non-competitive inhibition of Influenza A virus (A/chicken/Sandong/Li/2008(H9N2)) neuraminidase N2 using 4-MU-NANA as substrate by Lineweaver-Burk plot analysis.

Compound `CC(C)C(=O)Nc1cc(NC(=O)/C=C/c2ccccc2)ccc1O` registered an inhibition in data set [1] of 47.2%.

In data set [1], `CC(=O)Nc1cc(NC(=O)/C=C/c2ccccc2)ccc1O` had an inhibition of 40.2%.

`O=C(/C=C/c1ccc(O)cc1)CC(=O)/C=C/c1ccc(O)c(O)c1` returned a concentration for half-maximal inhibition (IC50) at Neuraminidase [2] of 64.1 µM.

As for `O=C(/C=C/c1ccc(O)c(O)c1)NCCC[C@H](NC(=O)Cc1ccccc1)C(=O)O`, the concentration for half-maximal inhibition (IC50) at Neuraminidase [3] amounted to 30.2 µM; against Neuraminidase [5] it was 28.1 µM. The compound also displayed a 50% cytotoxic concentration (CC50) at 48 h in data set [4] of 87.7 µM.

Turning to `CC(C)C(=O)N[C@@H](CCCNC(=O)/C=C/c1ccc(O)c(O)c1)C(=O)O`, the IC50 came out at 31.9 µM against Neuraminidase [3] and 30.3 µM on Neuraminidase [5]. In data set [4], this compound registered a CC50 at 48 h of 65 µM.

Regarding `O=C(/C=C/c1ccc(O)c(O)c1)NCCC[C@H](NC(=O)c1ccccc1)C(=O)O`, the concentration for half-maximal inhibition (IC50) at Neuraminidase [3] worked out at 34.3 µM; against Neuraminidase [5] it was 37.2 µM.

Turning to `CCC(CC)C(=O)Nc1cc(NC(=O)/C=C/c2ccccc2)ccc1O`, the inhibition in data set [1] turned out to be 45.2%.

As for `O=C(O)CCCNC(=O)/C=C/c1ccc(O)c(O)c1`, the values for the IC50 on Neuraminidase [3] and at Neuraminidase [5] were 27.7 µM and 16.8 µM, respectively.

For the compound `CCOC(=O)C1=C[C@@H](OC(CC)CC)[C@H](NC(C)=O)[C@@H](N)C1` [OSELTAMIVIR], in the data set with Influenza A virus, the EC50 came out at 0.5 µM. Besides, in data set [4], the CC50 at 48 h is above 10 µM.

On to `COc1cc(O)ccc1C(=O)/C=C/c1ccc(O)cc1`, for which inhibition at Neuraminidase [6] was half-maximal at 24.3 µM (IC50). In other words, the double-digit micromolar range.

`CCC(=O)Nc1cc(NC(=O)/C=C/c2ccccc2)ccc1O`: in data set [1], the inhibition was 42.9%.

Consider `CCC(=O)N[C@@H](CCCNC(=O)/C=C/c1ccc(O)c(O)c1)C(=O)O`, for which the IC50 against Neuraminidase [3] came out at 31.3 µM; against Neuraminidase [5], 37.9 µM.

In the case of `O=C(O)COc1ccc(NC(=O)/C=C/c2ccc(O)c(O)c2)cc1NC(=O)C1CC1`, the values for the IC50 at Neuraminidase [3] and against Neuraminidase [5] were 13.8 µM and 16.5 µM, respectively. In addition, the half-maximal cytotoxic concentration (CC50) at 48 h in data set [4] worked out at 86.7 µM.

On to `CC(C)[C@H](NC(=O)/C=C/c1ccc(O)c(O)c1)C(=O)O`, for which the figures for the 50% inhibitory concentration (IC50) on Neuraminidase [3] and on Neuraminidase [5] were 38.3 µM and 37.3 µM, respectively.

With `CCC(CC)C(=O)Nc1cc(NC(=O)/C=C/c2ccc(O)c(O)c2)ccc1O`, the half-inhibitory concentration (IC50) came to 22.8 µM on Neuraminidase [3] and 20.7 µM at Neuraminidase [5]. For the same compound, the concentration giving a half-maximal response (EC50) in the data set with Influenza A virus was 22.6 µM. Besides, the CC50 at 48 h in data set [4] was above 100 µM.

For `O=C(/C=C/c1ccc(O)c(O)c1)N[C@@H](Cc1ccccc1)C(=O)O`, the 50% inhibitory concentration (IC50) on Neuraminidase [3] turned out to be 37.4 µM; on Neuraminidase [5], 39.6 µM.

On to `O=C(O)CNC(=O)/C=C/c1ccc(O)c(O)c1`, for which the results for the IC50 against Neuraminidase [3] and on Neuraminidase [5] were 49.5 µM and 43.3 µM, respectively.

In the case of `O=C(/C=C/c1ccc(O)c(O)c1)CC(=O)/C=C/c1ccc(O)c(O)c1`, at Neuraminidase [2], 63.8 µM corresponded to half-maximal inhibition (IC50).

For `O=C(/C=C/c1ccc(O)c(O)c1)N[C@@H](Cc1c[nH]c2ccccc12)C(=O)O`, the IC50 was determined as 30.1 µM on Neuraminidase [3] and 27.2 µM at Neuraminidase [5]. The EC50 in the data set with Influenza A virus is above 100 µM. The same compound gave a CC50 at 48 h in data set [4] of 89.5 µM.

Turning to `CC(C)(C)OC(=O)N[C@@H](CCCNC(=O)/C=C/c1ccc(O)c(O)c1)C(=O)O`, the IC50 on Neuraminidase [3] was 34.7 µM; at Neuraminidase [5] it was 33.6 µM.

With `O=C(/C=C/c1ccccc1)Nc1ccc(O)c(NC(=O)C2CC2)c1`, the inhibition in data set [1] amounted to 42.6%.

In the case of `CC(=O)Nc1cc(NC(=O)/C=C/c2ccc(O)c(O)c2)ccc1O`, the 50% inhibitory concentration (IC50) against Neuraminidase [3] worked out at 17.7 µM; against Neuraminidase [5] it was 27.4 µM. Moreover, it took 78.2 µM to reach half-maximal cytotoxicity in data set [4] (CC50 at 48 h).

With `CC(C)C(=O)Nc1cc(NC(=O)/C=C/c2ccc(O)c(O)c2)ccc1O`, the results for the IC50 at Neuraminidase [3] and at Neuraminidase [5] were 19 µM and 20.4 µM, respectively.

With `CC(C)C(=O)Nc1cc(NC(=O)/C=C/c2ccc(O)c(O)c2)ccc1OCC(=O)O`, the concentration for half-maximal inhibition (IC50) against Neuraminidase [3] was 11.6 µM; at Neuraminidase [5], 13 µM. In data set [4], this compound showed a 50% cytotoxic concentration (CC50) at 48 h of 94.3 µM.

On to `CCC(=O)Nc1cc(NC(=O)/C=C/c2ccc(O)c(O)c2)ccc1O`, for which the IC50 against Neuraminidase [3] is 17.6 µM; on Neuraminidase [5], 23.6 µM. The EC50 in the data set on Influenza A virus was 58.6 µM. Further, the CC50 at 48 h in data set [4] is above 100 µM.

For the compound `O=C(/C=C/c1ccc(O)c(O)c1)Nc1ccc(O)c(NC(=O)C2CC2)c1`, the results for the IC50 at Neuraminidase [3] and against Neuraminidase [5] were 18.2 µM and 24.7 µM, respectively.

Consider `CCC(CC)C(=O)N[C@@H](CCCNC(=O)/C=C/c1ccc(O)c(O)c1)C(=O)O`, for which the IC50 at Neuraminidase [3] worked out at 39.2 µM; at Neuraminidase [5], 44.2 µM.

In turn, `CCC(CC)C(=O)Nc1cc(NC(=O)/C=C/c2ccc(O)c(O)c2)ccc1OCC(=O)O` displayed an inhibition constant (Ki) at Neuraminidase [7] of 11.5 µM. Moreover, the IC50 at Neuraminidase [3] came out at 8.5 µM; against Neuraminidase [5], 7.2 µM. Moreover, the EC50 in the data set on Influenza A virus came out at 31.2 µM. This compound also displayed a CC50 at 48 h in data set [4] above 100 µM.

As for `O=C(O)CCNC(=O)/C=C/c1ccc(O)c(O)c1`, the IC50 on Neuraminidase [3] stood at 27.3 µM; on Neuraminidase [5] it was 13.5 µM. Besides, the EC50 in the data set on Influenza A virus was above 100 µM. In addition, the CC50 at 48 h in data set [4] is above 100 µM.

In the case of `CC(=O)Nc1cc(NC(=O)/C=C/c2ccc(O)c(O)c2)ccc1OCC(=O)O`, the 50% inhibitory concentration (IC50) on Neuraminidase [3] worked out at 12.2 µM; against Neuraminidase [5], 15.4 µM. The CC50 at 48 h in data set [4] came out at 60.4 µM.

For orientation: inhibition means the drop in the measured response relative to a control, in per cent. A word on the IC50: it is the concentration at which inhibition is half-maximal. In general, CC50 refers to the concentration that lowers cell viability or growth by half. Lower therefore signals greater toxicity to the cells. In general, EC50 refers to the concentration that produces a half-maximal response. A word on the Ki: it is the equilibrium dissociation constant of an inhibitor or competing ligand from its target.

Values taken from ChEMBL document CHEMBL2390861, “Caffeic acid derivatives: a new type of influenza neuraminidase inhibitors” (Bioorg Med Chem Lett, 2013).
